Assay results as given in paper PMC8136485, “Were Ancestral Proteins Less Specific?” (Molecular Biology and Evolution, 2021).
Ends that are not written are not given here. * marks the point of attachment. 5FAM = O=C1OC2(c3ccc(O)cc3Oc3cc(O)ccc32)c2ccc(C(=O)*)cc21

Key:
hA5 (human S100A5) [1] = biological target: T1, hA5 (human S100A5) (Homo sapiens, UniProt P33763); test: Fluorescence polarization, displacement of 5FAM probe peptide; assay type: binding; conditions: displacement of 5FAM-labelled probe, 50 mM TES, 100 mM NaCl, 0.01% Tween-20, pH 7.4, 2.4-4.2 µM protein with equal probe, technical triplicate, corrected for probe
T1 construct: His tag with TEV protease cleavage site (N, cleaved yes); made in house; host or cells: Rosetta E. coli (DE3) pLysS
T1 sequence (P33763 1-92): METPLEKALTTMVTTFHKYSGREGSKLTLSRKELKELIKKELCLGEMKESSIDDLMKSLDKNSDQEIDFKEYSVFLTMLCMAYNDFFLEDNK
Description: (§1) To mimic the phage display experiment, we measured binding by displacement of a fluorescently labeled probe peptide. For our probe, we used the competitor peptide from the phage display experiment with the addition of an N-terminal 5-FAM fluorophore (fig. 3A). […] We could then measure fluorescence polarization of the probe peptide as a function of increasing concentrations of unlabeled peptide. A peptide that binds at the same site as the probe will displace the probe and thereby change the fluorescence polarization.
(§2) We did the fluorescence polarization experiments in 50 mM TES, 100 mM NaCl, and 0.01% Tween-20, pH 7.4, thus matching the phage display experimental buffer. We ordered all nine test peptides and the probe peptide in milligram quantities at 95% purity (Genscript). For the probe peptide, we used “5FAM-[…],” where 5FAM indicates an N-terminally linked 5-carboxyfluorescein moiety. […] The only exception was […], which we dissolved in ddH2O .
(§3) We measured fluorescence anisotropy using a SpectraMax i3 plate reader (Molecular Devices) with 96-well black plates (Corning). Prior to reading each plate, we shook for 5 s and then acquired with 500 ms integration time. Prior to the set of experiments, we optimized detector height and calibrated the plate’s xy position to maximize signal. We then kept this calibration throughout the set of experiments. For each experiment, we recorded both vertical (vv) and horizontal (vh) emission channels and then converted to arbitrary polarization units by: (5) R=vv−Gvh/vv+2Gvh with G set to 1.0. Titrations were done by serial dilution through conditions on individual plates, followed by measurement of all wells. We did all measurements in technical triplicate. We used custom software to programmatically remove technical replicate outliers.
(§4) For our production experiments, we added increasing amounts of competitor peptide to wells with between 2.4 and 4.2 µM protein (monomer). Each well also contained probe peptide at the same concentration as the protein. We selected these concentrations to maximize the amount of signal change upon addition of competitor peptide KD,probe . We calculated the expected signal change by: (7) ΔPpredicted=ΔPmax×[MX]/[X]T where ΔPmax=0.135 (as determined by our initial fits to extract probe peptide KD,probe ), [X]T was the total probe concentration, and [MX] was the concentration of the probe/protein complex prior to adding competitor peptide. We calculated [MX] by: (8) [MX]=([X]T+[M]T+KD,probe)±([X]T+[M]T+KD,probe)^2−4[X]T[M]T/2 where [M]T was the total protein concentration.
(§5) Prior to fitting a binding model to each curve, we converted it from polarization to fractional saturation. We did so by first fitting the single-site binding model to the data to obtain an estimate of the initial polarization (P0) for the protein/peptide pair. We then subtracted this value of P0 to obtain a baseline-subtracted polarization. We then divided the baseline-subtracted polarization by ΔPpredicted , yielding a fractional saturation (θ).
(§6) We then fit a reduced form of the single-site binding model to the data: (9) θ=[protein]/[protein]+KD,apparent
(§7) Finally, we corrected the resulting KD,apparent to account for the effect of the competitor peptide ([Hulme and Trevethick 2010]): (10) KD,peptide=KD,apparent/1+[X]T*(1−δ/2)/KD,probe+δ/(1−δ) where [X]T is the total probe peptide concentration and δ=[MX]/[X]T .

hA6 (human S100A6) [2] = biological target: T2, hA6 (human S100A6) (Homo sapiens, UniProt P06703); test: as above; assay type: binding; conditions: displacement of 5FAM-labelled probe, 50 mM TES, 100 mM NaCl, 0.01% Tween-20, pH 7.4, 2.4-4.2 µM protein with equal probe, technical triplicate, corrected for probe
T2 construct: His tag with TEV protease cleavage site (N, cleaved yes); made in house; host or cells: Rosetta E. coli (DE3) pLysS
Description: as §1, §2, §3, §4, §5, §6, §7

ancA5/A6 = test: Fluorescence polarization, direct titration of probe peptide with protein; assay type: binding; conditions: 0.03 μM probe, 0 to ≈200 μM protein, 2 mM CaCl2, then 5 mM EDTA added
Description: as §1
(§8) We fit the curve to a single-site binding model: (6) P([protein])∼ΔPmax[protein]/[protein]+KD,probe+P0 where P0 is the polarization of the peptide in the absence of protein, ΔPmax is the change in signal from unbound peptide to bound to the protein, and KD,probe is the probe dissociation constant. After recording the titration curve in the presence of CaCl2, we added 5 mM EDTA to all wells and remeasured the curve.
(§9) Fig S6: Binding of /f_luorescent probe peptide is calcium dependent. Panel show measured /f_luorescence anisotropy for the peptide 5FAM- GFDWR […] in the presence of […]
(§10) increasing protein concentration. Probe concentration was 0.03 uM. Proteins are hA5 (purple), hA6 (orange), ancA5/A6 (green), and human S100A9 (black). S100A9 is a negative control, because it is evolutionarily distant from hA5 and hA6 and would thus not be expec ted to bind to the probe […]

hA6 = test: as above; assay type: binding, human; conditions: 0.03 μM probe, 0 to ≈200 μM protein, 2 mM CaCl2, then 5 mM EDTA added
Description: as §1, §8, §9, §10

hA5 = test: as above; assay type: binding, human; conditions: 0.03 μM probe, 0 to ≈200 μM protein, 2 mM CaCl2, then 5 mM EDTA added
Description: as §1, §8, §9, §10

[3] = tested on: ancA5/A6 (reconstructed last common ancestor of S100A5 and S100A6); test: Quantitative phage display enrichment with/without competitor peptide; assay type: binding; conditions: ancA5/A6 (aA5A6 in csv); E=−ln(cnon-competitor/ccompetitor); panning in 2 mM Ca2+, elution 5 mM EDTA; 20 μM competitor; E≤−1.5 taken as binder
Description: (§11) We next set out to measure the binding of S100 proteins to this library of random 12-mer peptides. The S100 peptide-binding interface is only exposed upon Ca^2+ -binding (fig. 1A); therefore, we performed phage panning experiments in the presence of saturating Ca^2+ and then eluted the bound phage using saturating ethylenediaminetetraacetic acid (EDTA) (fig. 2B). After this panning step, the population of enriched phage particles will be a mixture of those that bind at the site of interest and those that bind adventitiously (blue and purple phage, fig. 2B) ([Sidhu et al. 2000]; [Willats 2002]). To separate these populations, we repeated the panning experiment in the presence of a saturating concentration of competitor peptide known to bind at the site of interest ([…], fig. 2C) ([Wheeler et al. 2018]). This should lower the enrichment of peptides that bind at the site of interest, while allowing any adventitious interactions to remain. By comparing the competitor and noncompetitor pools, we can distinguish between specific and adventitious binders.
(§12) After panning, we sequenced the resulting phage pools using Illumina sequencing. […] We estimated changes in the frequencies of peptides between samples with and without competitor peptide (supplementary fig. S3, Supplementary Material online). For each peptide, we determined E: (1) E=−ln(cnon-competitor/ccompetitor) where ccompetitor and cnon-competitor are the sequence counts for the peptide recovered from parallel Ca^2+/EDTA panning experiments done with and without competitor peptides.
(§13) If E < 0, the competitor peptide interferes with the Ca^2+ -dependent enrichment of the peptide. […] If E > 0, the competitor peptide improves Ca^2+ -dependent enrichment of the phage peptide. This could occur if the phage peptide binds more favorably to the S100/competitor peptide complex than the S100 alone. […]
(§14) Phage display experiments were performed using the PhD-12 peptide phage display kit (NEB). […] Eluates were tittered to quantify eluted phage as follows. […]

hA5 (human S100A5) [4] = biological target: T1, hA5 (human S100A5); test: as above; assay type: binding; conditions: E=−ln(cnon-competitor/ccompetitor), panning in 2 mM Ca2+, elution 5 mM EDTA, 20 μM competitor, E≤−1.5 taken as binder
Description: as §11, §12, §13, §14

hA6 (human S100A6) [5] = biological target: T2, hA6 (human S100A6); test: as above; assay type: binding; conditions: E=−ln(cnon-competitor/ccompetitor), panning in 2 mM Ca2+, elution 5 mM EDTA, 20 μM competitor, E≤−1.5 taken as binder
Description: as §11, §12, §13, §14

Row | Substance | Kd (hA6 (human S100A6) [2]) [µM] | Kd (hA5 (human S100A5) [1]) [µM] | also measured
1 | SRQTTSTHEWVVGGSAE [phage_ctl_4] | 102 |  | Kd (KD,peptide) (hA5 (human S100A5) [1]): No model could be reliably fit
2 | 5FAM-GFDWRWGMEALTGGGSAE [probe] |  |  | calcium dependence of probe binding (ancA5/A6): bound in a calcium-dependent manner; calcium dependence of probe binding (hA6): bound in a calcium-dependent manner; calcium dependence of probe binding (hA5): bound in a calcium-dependent manner
3 | GWLEQYFSRTADGGSAE [phage_ctl_2] | 14.6 | 18.6 | 
4 | SGPSDWLHKGVLGGSAE [phage_ctl_9, phage display 12-mer peptide with C-terminal flank, ordered as synthetic test peptide] |  |  | E (enrichment) [3]: 5.052; E (enrichment) (hA5 (human S100A5) [4]): 0.5882; E (enrichment) (hA6 (human S100A6) [5]): 0.5131
5 | RHGFLQDILFKLGGSAE [phage_ctl_1] | 61.7 | 36.4 | 
6 | EGLDLMSILELIGGSAE [phage_ctl_0] | 48.7 | 47.2 | 
7 | EQPLLKYLQLMRGGSAE [phage_ctl_5] |  | 85.8 | 
8 | HVQWRDRNVIEWGGSAE [phage_ctl_6] |  | 123 | 
9 | GEVTNYGYLVDQGGSAE [phage_ctl_7] | 42.7 |  | 
10 | SSSTYPGFRQSTGGSAE [phage_ctl_8] | 202 |  | 
